Source: PubChem BioAssay AID1259407 (Chemical Carcinogenesis Research Information System (CCRIS), 2018)
Calls of active or inactive are those of the source. The rule behind the calls is not given here.

Test system: CCRIS mutagenicity, Ames/micronucleus/aberration tests
Experiment: CCRIS mutagenicity studies
[1] = Test System: AMES SALMONELLA TYPHIMURIUM, Strain/Indicator: TA98, Metabolic Activation: NONE, Method: STANDARD PLATE
[2] = Test System: AMES SALMONELLA TYPHIMURIUM, Strain/Indicator: TA98, Metabolic Activation: RAT, LIVER, S-9, Method: STANDARD PLATE
[3] = Test System: AMES SALMONELLA TYPHIMURIUM, Strain/Indicator: TA100, Metabolic Activation: NONE, Method: STANDARD PLATE

For CCNNCC, the mutagenic call (Test System: AMES SALMONELLA TYPHIMURIUM, Strain/Indicator: TA98, Metabolic Activation: NONE, Method: PREINCUBATION) was “inactive; negative”, the mutagenic call (Test System: AMES SALMONELLA TYPHIMURIUM, Strain/Indicator: TA98, Metabolic Activation: RAT LIVER S-9, PHENOBARBITAL AND BETA-NAPHTHOFLAVONE, Method: PREINCUBATION) was “inactive; negative” and the mutagenic call (Test System: AMES SALMONELLA TYPHIMURIUM, Strain/Indicator: TA100, Metabolic Activation: NONE, Method: PREINCUBATION) was “inactive; negative”. The mutagenic call (Test System: AMES SALMONELLA TYPHIMURIUM, Strain/Indicator: TA100, Metabolic Activation: NONE, Method: PREINCUBATION (11 HR GROWTH PERIOD FOR BACTERIA)) was “active; positive”, the mutagenic call (Test System: AMES SALMONELLA TYPHIMURIUM, Strain/Indicator: TA100, Metabolic Activation: RAT LIVER S-9, PHENOBARBITAL AND BETA-NAPHTHOFLAVONE, Method: PREINCUBATION) was “inactive; negative” and the mutagenic call (Test System: AMES SALMONELLA TYPHIMURIUM, Strain/Indicator: TA100, Metabolic Activation: RAT, LIVER, S-9, PCB, Method: PREINCUBATION (11 HR GROWTH PERIOD FOR BACTERIA)) was “inactive; negative”. For the same compound, the mutagenic call (Test System: AMES SALMONELLA TYPHIMURIUM, Strain/Indicator: TA102, Metabolic Activation: NONE, Method: PREINCUBATION) was “inactive; negative”, the mutagenic call (Test System: AMES SALMONELLA TYPHIMURIUM, Strain/Indicator: TA102, Metabolic Activation: NONE, Method: PREINCUBATION (5 OR 7 HR GROWTH PERIOD FOR BACTERIA)) was “active; positive” and the mutagenic call (Test System: AMES SALMONELLA TYPHIMURIUM, Strain/Indicator: TA102, Metabolic Activation: NONE, Method: PREINCUBATION (11 HR GROWTH PERIOD FOR BACTERIA)) was “inactive; negative”. The mutagenic call (Test System: AMES SALMONELLA TYPHIMURIUM, Strain/Indicator: TA102, Metabolic Activation: RAT LIVER S-9, PHENOBARBITAL AND BETA-NAPHTHOFLAVONE, Method: PREINCUBATION) was “inactive; negative”, the mutagenic call (Test System: AMES SALMONELLA TYPHIMURIUM, Strain/Indicator: TA102, Metabolic Activation: RAT, LIVER, S-9, PCB, Method: PREINCUBATION (5 OR 7 HR GROWTH PERIOD FOR BACTERIA)) was “inactive; negative” and the mutagenic call (Test System: AMES SALMONELLA TYPHIMURIUM, Strain/Indicator: TA104, Metabolic Activation: NONE, Method: PREINCUBATION) was “inactive; negative”. The mutagenic call (Test System: AMES SALMONELLA TYPHIMURIUM, Strain/Indicator: TA104, Metabolic Activation: RAT LIVER S-9, PHENOBARBITAL AND BETA-NAPHTHOFLAVONE, Method: PREINCUBATION) was “inactive; negative”, the mutagenic call (Test System: AMES SALMONELLA TYPHIMURIUM, Strain/Indicator: TA1535, Metabolic Activation: NONE, Method: PREINCUBATION) was “inactive; negative” and the mutagenic call (Test System: AMES SALMONELLA TYPHIMURIUM, Strain/Indicator: TA1535, Metabolic Activation: RAT LIVER S-9, PHENOBARBITAL AND BETA-NAPHTHOFLAVONE, Method: PREINCUBATION) was “inactive; negative”. For the same compound, the mutagenic call (Test System: AMES SALMONELLA TYPHIMURIUM, Strain/Indicator: TA1537, Metabolic Activation: NONE, Method: PREINCUBATION) was “inactive; negative”, the mutagenic call (Test System: AMES SALMONELLA TYPHIMURIUM, Strain/Indicator: TA1537, Metabolic Activation: RAT LIVER S-9, PHENOBARBITAL AND BETA-NAPHTHOFLAVONE, Method: PREINCUBATION) was “inactive; negative” and the mutagenic call (Test System: E.COLI, Strain/Indicator: WP2UVRA/PKM101, Metabolic Activation: NONE, Method: PREINCUBATION) was “inactive; negative”. For the same compound, the mutagenic call (Test System: E.COLI, Strain/Indicator: WP2UVRA/PKM101, Metabolic Activation: RAT LIVER S-9, PHENOBARBITAL AND BETA-NAPHTHOFLAVONE, Method: PREINCUBATION) was “inactive; negative”, the mutagenic call (Test System: E.COLI, Strain/Indicator: WP2UVRA, Metabolic Activation: NONE, Method: PREINCUBATION) was “inactive; negative” and the mutagenic call (Test System: E.COLI, Strain/Indicator: WP2UVRA, Metabolic Activation: RAT LIVER S-9, PHENOBARBITAL AND BETA-NAPHTHOFLAVONE, Method: PREINCUBATION) was “inactive; negative”.

In the case of CN(C)c1ccc(C(=C2C=CC(=[N+](C)C)C=C2)c2ccccc2)cc1, the mutagenic call (End Point: IN VIVO MICRONUCLEUS, Test System: PERIPHERAL BLOOD ERYTHROCYTES, Species: MOUSE, Strain/Sex: BIG BLUE B6C3F1/FEMALE, Route: DIET) was “inactive; negative”, the mutagenic call (Test System: AMES SALMONELLA TYPHIMURIUM, Strain/Indicator: TA97A, Metabolic Activation: NONE, Method: STANDARD PLATE) was “inactive; negative” and the mutagenic call (Test System: AMES SALMONELLA TYPHIMURIUM, Strain/Indicator: TA97A, Metabolic Activation: RAT LIVER S-9, 3-METHYLCHOLANTHRENE, PHENOBARBITAL, Method: STANDARD PLATE) was “inactive; negative”. For the same compound, the mutagenic call [1] was “inactive; negative”, the mutagenic call (Test System: AMES SALMONELLA TYPHIMURIUM, Strain/Indicator: TA98, Metabolic Activation: RAT LIVER S-9, 3-METHYLCHOLANTHRENE, PHENOBARBITAL, Method: STANDARD PLATE) was “inactive; negative” and the mutagenic call [2] was “active; positive”. For the same compound, the mutagenic call [3] was “inactive; negative”, the mutagenic call (Test System: AMES SALMONELLA TYPHIMURIUM, Strain/Indicator: TA100, Metabolic Activation: RAT LIVER S-9, 3-METHYLCHOLANTHRENE, PHENOBARBITAL, Method: STANDARD PLATE) was “inactive; negative” and the mutagenic call (Test System: AMES SALMONELLA TYPHIMURIUM, Strain/Indicator: TA100, Metabolic Activation: RAT, LIVER, S-9, Method: STANDARD PLATE) was “inactive; negative”. For the same compound, the mutagenic call (Test System: AMES SALMONELLA TYPHIMURIUM, Strain/Indicator: TA100, Method: PREINCUBATION) was “active; positive”, the mutagenic call (Test System: AMES SALMONELLA TYPHIMURIUM, Strain/Indicator: TA102, Metabolic Activation: NONE, Method: STANDARD PLATE) was “inactive; negative” and the mutagenic call (Test System: AMES SALMONELLA TYPHIMURIUM, Strain/Indicator: TA102, Metabolic Activation: RAT LIVER S-9, 3-METHYLCHOLANTHRENE, PHENOBARBITAL, Method: STANDARD PLATE) was “inactive; negative”. For the same compound, the mutagenic call (Test System: AMES SALMONELLA TYPHIMURIUM, Strain/Indicator: TA1535, Metabolic Activation: NONE, Method: STANDARD PLATE) was “inactive; negative”, the mutagenic call (Test System: AMES SALMONELLA TYPHIMURIUM, Strain/Indicator: TA1535, Metabolic Activation: RAT, LIVER, S-9, Method: STANDARD PLATE) was “inactive; negative” and the mutagenic call (Test System: AMES SALMONELLA TYPHIMURIUM, Strain/Indicator: TA1537, Metabolic Activation: NONE, Method: STANDARD PLATE) was “inactive; negative”. The mutagenic call (Test System: AMES SALMONELLA TYPHIMURIUM, Strain/Indicator: TA1537, Metabolic Activation: RAT, LIVER, S-9, Method: STANDARD PLATE) was “inactive; negative”, the mutagenic call (Test System: CHO/HGPRT, Strain/Indicator: CHO-K1, Metabolic Activation: NONE, Method: STANDARD PLATE) was “inactive; negative” and the mutagenic call (Test System: CHO/HGPRT, Strain/Indicator: CHO-K1, Metabolic Activation: RAT LIVER S-9, 3-METHYLCHOLANTHRENE, PHENOBARBITAL, Method: STANDARD PLATE) was “inactive; negative”.

With CCC(=C(CC)c1ccc(O)cc1)c1ccc(O)cc1 the mutagenic call (End Point: IN VITRO MICRONUCLEUS, Test System: CHL/IU CELLS, Metabolic Activation: NONE) was “active; positive”.

In the case of Nc1cccc2c1-c1ccccc1C2, the mutagenic call (Test System: AMES SALMONELLA TYPHIMURIUM, Strain/Indicator: TA98, Metabolic Activation: RAT, LIVER, S-9, AROCLOR 1254 (2 OR 4%), Method: STANDARD PLATE) was “active; positive”, the mutagenic call (Test System: AMES SALMONELLA TYPHIMURIUM, Strain/Indicator: TA100, Metabolic Activation: RAT, LIVER, S-9, AROCLOR 1254 (2%), Method: STANDARD PLATE) was “active; positive” and the mutagenic call (Test System: AMES SALMONELLA TYPHIMURIUM, Strain/Indicator: TA1535, Metabolic Activation: RAT, LIVER, S-9, AROCLOR 1254 (2%), Method: STANDARD PLATE) was “inactive; negative”. The mutagenic call (Test System: AMES SALMONELLA TYPHIMURIUM, Strain/Indicator: TA1537, Metabolic Activation: RAT, LIVER, S-9, AROCLOR 1254 (2%), Method: STANDARD PLATE) was “inactive; negative”.

With O[C@H]1C=CC2=C(c3cccc4cccc2c34)[C@@H]1O the mutagenic call (Test System: AMES SALMONELLA TYPHIMURIUM, Strain/Indicator: TM677, Metabolic Activation: NONE, Method: PREINCUBATION) was “active; positive” and the mutagenic call (Test System: AMES SALMONELLA TYPHIMURIUM, Strain/Indicator: TM677, Metabolic Activation: RAT, LIVER, POSTMITOCHONDRIAL SUPERNATANT, AROCLOR 1254, Method: PREINCUBATION) was “active; positive”.

With Cc1ccc(N=Nc2c(O)ccc3ccccc23)cc1 the mutagenic call [1] was “inactive; negative”, the mutagenic call [2] was “inactive; negative” and the mutagenic call [3] was “inactive; negative”. The mutagenic call (Test System: AMES SALMONELLA TYPHIMURIUM, Strain/Indicator: TA100, Metabolic Activation: RAT, LIVER, S-9,, Method: STANDARD PLATE) was “inactive; negative”.
